{"source": "ChEMBL document CHEMBL1817587", "about": "“DNA site-specific N3-adenine methylation targeted to estrogen receptor-positive cells” (Bioorg Med Chem, 2011)", "key": {"[1]": {"biological_target": "T1, Estrogen receptor (Homo sapiens) (UniProt P03372)", "T1 sequence (whole entry)": "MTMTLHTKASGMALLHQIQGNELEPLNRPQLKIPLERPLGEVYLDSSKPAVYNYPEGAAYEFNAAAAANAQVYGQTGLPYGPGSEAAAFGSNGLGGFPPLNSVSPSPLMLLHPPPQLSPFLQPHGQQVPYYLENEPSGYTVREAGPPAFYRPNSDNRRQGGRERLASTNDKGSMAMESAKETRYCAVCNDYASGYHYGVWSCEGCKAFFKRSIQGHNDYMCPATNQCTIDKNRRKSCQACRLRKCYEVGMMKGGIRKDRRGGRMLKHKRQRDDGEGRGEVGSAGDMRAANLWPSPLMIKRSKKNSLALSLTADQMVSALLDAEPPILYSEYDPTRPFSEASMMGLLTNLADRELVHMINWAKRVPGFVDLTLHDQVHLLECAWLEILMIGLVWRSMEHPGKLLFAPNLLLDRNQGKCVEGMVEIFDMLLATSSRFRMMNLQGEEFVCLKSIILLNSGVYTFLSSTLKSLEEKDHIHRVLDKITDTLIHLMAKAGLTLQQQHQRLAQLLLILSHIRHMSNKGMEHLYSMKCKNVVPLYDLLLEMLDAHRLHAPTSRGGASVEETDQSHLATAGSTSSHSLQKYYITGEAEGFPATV", "assay": "(§1) Binding affinity to estrogen receptor-alpha after 2 hrs by TR-FRET assay"}, "[2]": {"biological_target": "T2, Estrogen receptor (Homo sapiens, UniProt P03372)", "T2 sequence (P03372 whole entry)": "T1 sequence (whole entry)", "assay": "as §1"}, "[3]": {"tested_on": "MCF7", "assay": "Cytotoxicity against human MCF7 cells at 500 uM after 16 hrs by MTT assay", "assay_type": "functional, cell-based"}, "[4]": {"tested_on": "Nucleic Acid", "assay": "Induction of DNA methylation at calf thymus DNA assessed as 3-MeA adduct level per mol of DNA at 100 uM after 24 hrs by reverse phase HPLC in presence of 100 uM netropsin", "assay_type": "nucleic-acid assay", "settings": "Bos taurus"}, "[5]": {"tested_on": "Nucleic Acid", "assay": "Induction of DNA methylation at calf thymus DNA assessed as 7-MeG adduct level per mol of DNA at 100 uM after 24 hrs by reverse phase HPLC", "assay_type": "nucleic-acid assay", "settings": "Bos taurus"}, "[6]": {"tested_on": "Nucleic Acid", "assay": "Induction of DNA methylation at calf thymus DNA assessed as 7-MeG adduct level per mol of DNA at 100 uM after 24 hrs by reverse phase HPLC in presence of 100 uM netropsin", "assay_type": "nucleic-acid assay", "settings": "Bos taurus"}, "[7]": {"tested_on": "Nucleic Acid", "assay": "Induction of DNA methylation at calf thymus DNA assessed as total adduct level at 500 uM after 24 hrs by reverse phase HPLC relative to methylmethane sufonate", "assay_type": "nucleic-acid assay", "settings": "Bos taurus"}, "[8]": {"tested_on": "Nucleic Acid", "assay": "Induction of DNA methylation at calf thymus DNA assessed as 3-MeA level at 500 uM after 24 hrs by reverse phase HPLC relative to methylmethane sufonate", "assay_type": "nucleic-acid assay", "settings": "Bos taurus"}, "[9]": {"tested_on": "Nucleic Acid", "assay": "Induction of DNA methylation at calf thymus DNA assessed as 7-MeG level at 500 uM after 24 hrs by reverse phase HPLC relative to methylmethane sufonate", "assay_type": "nucleic-acid assay", "settings": "Bos taurus"}, "[10]": {"tested_on": "MCF7", "assay": "Cytotoxicity against human MCF7 cells after 16 hrs by MTT assay", "assay_type": "functional, cell-based", "settings": "MCF7, 16 h"}, "[11]": {"tested_on": "Nucleic Acid", "assay": "Induction of DNA methylation at calf thymus DNA assessed as 3-MeA adduct level per mol of DNA after 24 hrs by reverse phase HPLC", "assay_type": "nucleic-acid assay", "settings": "Bos taurus"}, "[12]": {"tested_on": "Nucleic Acid", "assay": "Induction of DNA methylation at calf thymus DNA assessed as 7-MeG adduct level per mol of DNA after 24 hrs by reverse phase HPLC", "assay_type": "nucleic-acid assay", "settings": "Bos taurus"}, "[13]": {"tested_on": "Nucleic Acid", "assay": "Induction of DNA methylation at calf thymus DNA assessed as 3-MeA adduct level per mol of DNA at 5000 uM after 24 hrs by reverse phase HPLC", "assay_type": "nucleic-acid assay", "settings": "Bos taurus"}, "[14]": {"tested_on": "Nucleic Acid", "assay": "Induction of DNA methylation at calf thymus DNA assessed as 3-MeA adduct level per mol of DNA at 5000 uM after 24 hrs by reverse phase HPLC in presence of 100 uM netropsin", "assay_type": "nucleic-acid assay", "settings": "Bos taurus"}, "[15]": {"tested_on": "Nucleic Acid", "assay": "Induction of DNA methylation at calf thymus DNA assessed as 3-MeA adduct level per mol of DNA at 50 uM after 24 hrs by reverse phase HPLC", "assay_type": "nucleic-acid assay", "settings": "Bos taurus"}, "[16]": {"tested_on": "Nucleic Acid", "assay": "Induction of DNA methylation at calf thymus DNA assessed as 3-MeA adduct level per mol of DNA at 50 uM after 24 hrs by reverse phase HPLC in presence of 100 uM netropsin", "assay_type": "nucleic-acid assay", "settings": "Bos taurus"}, "[17]": {"tested_on": "Nucleic Acid", "assay": "Induction of DNA methylation at calf thymus DNA assessed as 7-MeG adduct level per mol of DNA at 50 uM after 24 hrs by reverse phase HPLC", "assay_type": "nucleic-acid assay", "settings": "Bos taurus"}, "[18]": {"tested_on": "Nucleic Acid", "assay": "Induction of DNA methylation at calf thymus DNA assessed as 7-MeG adduct level per mol of DNA at 50 uM after 24 hrs by reverse phase HPLC in presence of 100 uM netropsin", "assay_type": "nucleic-acid assay", "settings": "Bos taurus"}, "[19]": {"tested_on": "MCF7", "assay": "Ratio of methylmethane sufonate EC50 to compound EC50 for human MCF7 cells after 16 hrs by MTT assay", "assay_type": "functional"}, "[20]": {"tested_on": "MCF7", "assay": "Cytotoxicity against human MCF7 cells at 250 uM after 16 hrs by MTT assay pretreated with 250 uM fulvestrant", "assay_type": "functional, cell-based"}, "[21]": {"tested_on": "MCF7", "assay": "Cytotoxicity against human MCF7 cells after 16 hrs by MTT assay pretreated with 100 uM netropsin", "assay_type": "functional, cell-based"}, "[22]": {"tested_on": "MCF7", "assay": "Ratio of Me-lex EC50 to compound EC50 for human MCF7 cells after 16 hrs by MTT assay", "assay_type": "functional"}, "[23]": {"tested_on": "MCF7", "assay": "Ratio of EC50 for human MCF7 cells pretreated with 100 uM netropsin to compound EC50 for human MCF7 cells", "assay_type": "functional"}}, "note": "pEC50, pIC50: −log10 of the molar value. Active and inactive are the calls of the source. The rule behind the calls is not given here.", "data": [{"smiles": "Cn1cc(NC(=O)c2cc(NC(=O)CCS(C)(=O)=O)cn2C)cc1C(=O)NCCCC(=O)NCCCCCC[C@@H]1Cc2cc(O)ccc2[C@H]2CC[C@]3(C)[C@@H](O)CC[C@H]3[C@H]12", "values": [{"measurement": "RBA", "setting": "[1]", "value": 51, "unit": "%"}, {"measurement": "pIC50", "setting": "[2]", "value": 8.95}, {"measurement": "Activity", "setting": "[3]", "value": "inactive"}]}, {"smiles": "CCCNC(=O)CCCNC(=O)c1cc(NC(=O)c2cc(NC(=O)CCS(=O)(=O)OC)cn2C)cn1C", "values": [{"measurement": "Activity", "setting": "[4]", "value": 657, "unit": "µmol"}, {"measurement": "Activity", "setting": "[5]", "value": 496, "unit": "µmol"}, {"measurement": "Activity", "setting": "[6]", "value": 614, "unit": "µmol"}, {"measurement": "fold change (FC)", "setting": "[7]", "value": 37}, {"measurement": "fold change (FC)", "setting": "[8]", "value": 391}, {"measurement": "fold change (FC)", "setting": "[9]", "value": 1.4}, {"measurement": "pEC50", "setting": "[10]", "value": 3.67}, {"measurement": "Activity", "setting": "[11]", "value": 96, "unit": "%"}, {"measurement": "Activity", "setting": "[12]", "value": 90, "unit": "%"}]}, {"smiles": "COS(C)(=O)=O", "note": "[METHANESULFONIC ACID METHYL ESTER]", "values": [{"measurement": "Activity", "setting": "[13]", "value": 1800, "unit": "µmol"}, {"measurement": "Activity", "setting": "[14]", "value": 1240, "unit": "µmol"}, {"measurement": "pEC50", "setting": "[10]", "value": 2.56}, {"measurement": "Activity", "setting": "[11]", "value": 9, "unit": "%"}]}, {"smiles": "COS(=O)(=O)CCC(=O)Nc1cc(C(=O)Nc2cc(C(=O)NCCCC(=O)NCCCCCC[C@@H]3Cc4cc(O)ccc4[C@H]4CC[C@]5(C)[C@@H](O)CC[C@H]5[C@H]34)n(C)c2)n(C)c1", "values": [{"measurement": "Activity", "setting": "[15]", "value": 1760, "unit": "µmol"}, {"measurement": "Activity", "setting": "[16]", "value": 167, "unit": "µmol"}, {"measurement": "Activity", "setting": "[17]", "value": 280, "unit": "µmol"}, {"measurement": "Activity", "setting": "[18]", "value": 279, "unit": "µmol"}, {"measurement": "fold change (FC)", "setting": "[7]", "value": 11}, {"measurement": "fold change (FC)", "setting": "[8]", "value": 98}, {"measurement": "fold change (FC)", "setting": "[9]", "value": 1.5}, {"measurement": "pEC50", "setting": "[10]", "value": 3.87}, {"measurement": "Ratio EC50", "setting": "[19]", "value": 20}, {"measurement": "Activity", "setting": "[20]", "value": "inactive"}, {"measurement": "pEC50", "setting": "[21]", "value": 3.32}, {"measurement": "Ratio EC50", "setting": "[22]", "value": 1.5}, {"measurement": "Ratio EC50", "setting": "[23]", "value": 3}, {"measurement": "Activity", "setting": "[11]", "value": 86, "unit": "%"}, {"measurement": "Activity", "setting": "[12]", "value": 14, "unit": "%"}]}]}
